Measurements published in patent publication US7118895B2, “Process for producing aglycon by using diglycosidase and flavor-improved food containing the aglycon and converting agent to be used in the process” (Amano Enzyme Inc., priority 2000, dated 2006).

Test system: Crude diglycosidase
Test: Examination of pH in the conversion into isoflavone aglycons by diglycosidase using soybean materials
Assay type: biochemical, Penicillium multicolor IAM7153
Parameters: Decomposition efficiency of genistin family in soymilk / Decomposition efficiency of genistin family in defatted soybean / Decomposition efficiency of daidzin family in defatted soybean: concentration or dose not given beside the values
Conditions: for Decomposition efficiency of daidzin family in roasted soy flour: 55° C.
Description: A substrate solution of 450 μL was prepared by suspending 50 mg of each soybean material (roasted soy flour (manufactured by Fuji Shokuryo K.K.), soymilk (manufactured by Gitoh Shokuhin K.K.), defatted soybean (manufactured by Fuji Seiyu K.K.), concentrated soybean protein (manufactured by Fuji Seiyu K.K.)), and adjusting the pH to 2 to 11 with hydrochloric acid or sodium hydroxide. Each enzyme solution of pH 2–11 wherein diglycosidase activity of crude diglycosidase was adjusted to 1.88 AU/mL was added thereto in an amount of 50 μL and the whole was reacted at 55° C. at the total volume of 500 μL. To the reaction mixture was added 700 μL of ethanol after 0, 1, 3, and 6 hours of the reaction. After stirring and ultrasonication, the mixture was subjected to centrifugal separation at 15,000 rpm and 4° C. for 10 minutes. The supernatant was filtered through a filter and the existence of isoflavone glycosides and aglycon isoflavones contained in the reaction mixture was detected by HLPC (Tables 15 to 26).

[1] = pH4.8, heat treatment of enzyme: no, reaction time 0 h
[2] = pH4.8, heat treatment of enzyme: no, reaction time 1 h
[3] = pH4.8, heat treatment of enzyme: no, reaction time 3 h
[4] = pH4.8, heat treatment of enzyme: no, reaction time 6 h
[5] = pH4.8, heat treatment of enzyme: yes, reaction time 6 h

SMILES: CC(=O)OC[C@H]1O[C@@H](Oc2ccc3c(=O)c(-c4ccc(O)cc4)coc3c2)[C@H](O)[C@@H](O)[C@@H]1O [acetyldaidzin, 6″-O-acetyldaidzin]
- Decomposition efficiency of daidzin family in concentrated soybean protein (pH1.6, heat treatment of enzyme: no, reaction time 0 h): 44.5%
- Decomposition efficiency of daidzin family in concentrated soybean protein (pH1.6, heat treatment of enzyme: no, reaction time 1 h): 43.7%
- Decomposition efficiency of daidzin family in concentrated soybean protein (pH1.6, heat treatment of enzyme: no, reaction time 3 h): 41.7%
- Decomposition efficiency of daidzin family in concentrated soybean protein (pH1.6, heat treatment of enzyme: no, reaction time 6 h): 39.4%
- Decomposition efficiency of daidzin family in concentrated soybean protein (pH1.6, heat treatment of enzyme: yes, reaction time 6 h): 38.1%
- Decomposition efficiency of daidzin family in roasted soy flour (pH2, heat treatment of enzyme no, reaction time 0 h): 47.4
- Decomposition efficiency of daidzin family in roasted soy flour (pH2, heat treatment of enzyme no, reaction time 1 h): 46.9
- Decomposition efficiency of daidzin family in roasted soy flour (pH2, heat treatment of enzyme no, reaction time 3 h): 45.0
- Decomposition efficiency of daidzin family in roasted soy flour (pH2, heat treatment of enzyme no, reaction time 6 h): 42.4
- Decomposition efficiency of daidzin family in roasted soy flour (pH2, heat treatment of enzyme yes, reaction time 6 h): 42.4
- Decomposition efficiency of daidzin family in soymilk (pH2.3, heat treatment of enzyme: no, reaction time 0 h): not detected
- Decomposition efficiency of daidzin family in soymilk (pH2.3, heat treatment of enzyme: no, reaction time 1 h): not detected
- Decomposition efficiency of daidzin family in soymilk (pH2.3, heat treatment of enzyme: no, reaction time 3 h): not detected
- Decomposition efficiency of daidzin family in soymilk (pH2.3, heat treatment of enzyme: no, reaction time 6 h): not detected
- Decomposition efficiency of daidzin family in soymilk (pH2.3, heat treatment of enzyme: yes, reaction time 6 h): not detected
- Decomposition efficiency of daidzin family in defatted soybean (pH2.6, heat treatment of enzyme: no, reaction time 0 h): not detected
- Decomposition efficiency of daidzin family in defatted soybean (pH2.6, heat treatment of enzyme: no, reaction time 1 h): not detected
- Decomposition efficiency of daidzin family in defatted soybean (pH2.6, heat treatment of enzyme: no, reaction time 3 h): not detected
- Decomposition efficiency of daidzin family in defatted soybean (pH2.6, heat treatment of enzyme: no, reaction time 6 h): not detected
- Decomposition efficiency of daidzin family in defatted soybean (pH2.6, heat treatment of enzyme: yes, reaction time 6 h): not detected
- Decomposition efficiency of daidzin family in concentrated soybean protein (pH2.7, heat treatment of enzyme: no, reaction time 0 h): 44.5%
- Decomposition efficiency of daidzin family in concentrated soybean protein (pH2.7, heat treatment of enzyme: no, reaction time 1 h): 46.4%
- Decomposition efficiency of daidzin family in concentrated soybean protein (pH2.7, heat treatment of enzyme: no, reaction time 3 h): 46.0%
- Decomposition efficiency of daidzin family in concentrated soybean protein (pH2.7, heat treatment of enzyme: no, reaction time 6 h): 45.8%
- Decomposition efficiency of daidzin family in concentrated soybean protein (pH2.7, heat treatment of enzyme: yes, reaction time 6 h): 43.9%
- Decomposition efficiency of daidzin family in roasted soy flour (pH3, heat treatment of enzyme no, reaction time 0 h): 47.4
- Decomposition efficiency of daidzin family in roasted soy flour (pH3, heat treatment of enzyme no, reaction time 1 h): 46.0
- Decomposition efficiency of daidzin family in roasted soy flour (pH3, heat treatment of enzyme no, reaction time 3 h): 39.6
- Decomposition efficiency of daidzin family in roasted soy flour (pH3, heat treatment of enzyme no, reaction time 6 h): 40.7
- Decomposition efficiency of daidzin family in roasted soy flour (pH3, heat treatment of enzyme yes, reaction time 6 h): 47.4
- Decomposition efficiency of daidzin family in defatted soybean (pH3.4, heat treatment of enzyme: no, reaction time 0 h): not detected
- Decomposition efficiency of daidzin family in defatted soybean (pH3.4, heat treatment of enzyme: no, reaction time 1 h): not detected
- Decomposition efficiency of daidzin family in defatted soybean (pH3.4, heat treatment of enzyme: no, reaction time 3 h): not detected
- Decomposition efficiency of daidzin family in defatted soybean (pH3.4, heat treatment of enzyme: no, reaction time 6 h): not detected
- Decomposition efficiency of daidzin family in defatted soybean (pH3.4, heat treatment of enzyme: yes, reaction time 6 h): not detected
- Decomposition efficiency of daidzin family in soymilk (pH3.5, heat treatment of enzyme: no, reaction time 0 h): not detected
- Decomposition efficiency of daidzin family in soymilk (pH3.5, heat treatment of enzyme: no, reaction time 1 h): not detected
- Decomposition efficiency of daidzin family in soymilk (pH3.5, heat treatment of enzyme: no, reaction time 3 h): not detected
- Decomposition efficiency of daidzin family in soymilk (pH3.5, heat treatment of enzyme: no, reaction time 6 h): not detected
- Decomposition efficiency of daidzin family in soymilk (pH3.5, heat treatment of enzyme: yes, reaction time 6 h): not detected
- Decomposition efficiency of daidzin family in concentrated soybean protein (pH3.7, heat treatment of enzyme: no, reaction time 0 h): 44.6%
- Decomposition efficiency of daidzin family in concentrated soybean protein (pH3.7, heat treatment of enzyme: no, reaction time 1 h): 41.6%
- Decomposition efficiency of daidzin family in concentrated soybean protein (pH3.7, heat treatment of enzyme: no, reaction time 3 h): 33.0%
- Decomposition efficiency of daidzin family in concentrated soybean protein (pH3.7, heat treatment of enzyme: no, reaction time 6 h): 25.2%
- Decomposition efficiency of daidzin family in concentrated soybean protein (pH3.7, heat treatment of enzyme: yes, reaction time 6 h): 44.4%
- Decomposition efficiency of daidzin family in roasted soy flour (pH4, heat treatment of enzyme no, reaction time 0 h): 47.7
- Decomposition efficiency of daidzin family in roasted soy flour (pH4, heat treatment of enzyme no, reaction time 1 h): 34.4
- Decomposition efficiency of daidzin family in roasted soy flour (pH4, heat treatment of enzyme no, reaction time 3 h): 20.5
- Decomposition efficiency of daidzin family in roasted soy flour (pH4, heat treatment of enzyme no, reaction time 6 h): 11.1
- Decomposition efficiency of daidzin family in roasted soy flour (pH4, heat treatment of enzyme yes, reaction time 6 h): 47.9
- Decomposition efficiency of daidzin family in defatted soybean [1]: not detected
- Decomposition efficiency of daidzin family in soymilk [1]: not detected
- Decomposition efficiency of daidzin family in defatted soybean [2]: not detected
- Decomposition efficiency of daidzin family in soymilk [2]: not detected
- Decomposition efficiency of daidzin family in defatted soybean [3]: not detected
- Decomposition efficiency of daidzin family in soymilk [3]: not detected
- Decomposition efficiency of daidzin family in defatted soybean [4]: not detected
- Decomposition efficiency of daidzin family in soymilk [4]: not detected
- Decomposition efficiency of daidzin family in defatted soybean [5]: not detected
- Decomposition efficiency of daidzin family in soymilk [5]: not detected
